# Reference: patent US20140336216A1, “PHYSIOLOGICAL LIGANDS FOR GPR139” (Janssen Pharmaceutica NV, priority 2013, published 2014)
# “And” between values parts separate entries of the source, which are not always exact repeats. Equal values may be shown once.
# Legend:
# mouse GPR139 = biological target: T1, mouse GPR139 (Mus musculus, UniProt Q80UC8); experiment: GTPγS binding dose response study, mouse GPR139 co-transfected with GO2Q into COS7 cells; format: biochemical; conditions: mouse GPR139, FIG. 2C and 2D
# T1 construct: expressed in transfected cells; host or cells: COS7 (membranes)
# T1 sequence (Q80UC8 1-345): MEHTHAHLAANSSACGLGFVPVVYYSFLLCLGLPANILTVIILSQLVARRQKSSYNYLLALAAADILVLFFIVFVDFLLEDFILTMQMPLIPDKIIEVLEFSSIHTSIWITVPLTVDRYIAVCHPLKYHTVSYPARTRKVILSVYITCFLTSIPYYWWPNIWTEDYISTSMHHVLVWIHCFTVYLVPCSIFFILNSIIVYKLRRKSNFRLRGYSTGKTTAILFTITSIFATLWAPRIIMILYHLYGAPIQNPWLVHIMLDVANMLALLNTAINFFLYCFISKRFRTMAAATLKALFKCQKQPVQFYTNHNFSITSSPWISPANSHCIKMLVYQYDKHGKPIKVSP
# Source text: (§1) FIG. 2-FIG. 2F: Tryptophan, phenylalanine, and their derivatives activate GPR139. Human (FIG. 2A and FIG. 2B) or mouse (FIG. 2C and FIG. 2D) GPR139 were co-transfected with chimeric G-protein GO2Q into COS7 cells. Cell membranes from transfected cells were used in GTPγS binding studies using various ligands at different concentrations to stimulate GPR139. FIG. 2E and FIG. 2F show control experiments in the dose response studies of Example 1.
# GPR139 [1] = biological target: T2, GPR139 (Homo sapiens, UniProt Q6DWJ6); experiment: GTPγS binding assay, single-concentration screen, COS7 membranes co-expressing GPR139 and GO2Q; format: biochemical; design: expressed in transfected cells; host or cells: COS7 (membranes); conditions: for Activation of GPR139 in the GTPγS binding assay: 1 mM; for Activation levels of GPR139 (GTPγS binding), GPR139-GO2Q: 1 mM final concentration, COS7 membranes co-expressing GPR139 and GO2Q, single wells of triplicate
# T2 sequence (Q6DWJ6 1-353): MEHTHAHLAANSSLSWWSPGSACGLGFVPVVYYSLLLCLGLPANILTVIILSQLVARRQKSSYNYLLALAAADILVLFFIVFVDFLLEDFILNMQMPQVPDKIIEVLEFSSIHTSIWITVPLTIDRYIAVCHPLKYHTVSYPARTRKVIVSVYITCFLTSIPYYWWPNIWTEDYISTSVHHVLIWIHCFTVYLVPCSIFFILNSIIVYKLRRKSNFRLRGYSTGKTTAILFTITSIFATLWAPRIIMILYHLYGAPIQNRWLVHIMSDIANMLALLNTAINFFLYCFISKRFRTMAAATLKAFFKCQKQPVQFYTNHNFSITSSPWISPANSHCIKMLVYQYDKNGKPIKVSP
# Method: (§2) In order identify the ligands for GPR139 two improvements in the detection assay were made to allow for the ligands to be detected. First, we chose to use a GTPγS binding assay instead of using live cultured cells. The GTPγS binding assay is a cell free system that uses the cell membrane of the cell(s) of interest rather than the live cell(s). One advantage of this assay is that potential ligands present in the cell culture media are washed away when the cell membrane is prepared. This reduces the basal level of signal and increase the chance of detecting receptor ligands when assessing compounds that activate the receptor. Second, a GO2Q chimeric G-protein was created to be co-expressed with GPR139 in order to increase the signal-to-noise ratio in the GTPγS binding assay. Historically, the Gi, Go coupled GPCRs offer much greater signal-to-noise ratio in GTPγS binding studies. For Gs and Gq coupled GPCRs, although ligand-stimulated specific signals can be detected in a GTPγS binding assay, the signal-to-noise ratios are often very small. To address this a chimeric GO2-Gq chimeric G-protein, GO2Q, with the N-terminus from Go2 protein and the C-terminus from Gq protein.
# (§3) To test for compounds that activate GPR139, different amino acids and their derivatives (Table 2) were tested as ligands in the GTPγS binding assay using cell membranes from COS7 cells co-expressing GPR139 and GO2Q. Cell membrane from COS7 cells expressing GO2Q alone or co-expressing other GPCRs were also tested in GTPγS binding assay in parallel as controls. Each compound was tested in triplicate.
# [2] = test system: GPR21, GPR52, GPCR119, GPCR132, GPCR134, or GPR182; experiment: GTPγS binding assay, control membranes co-expressing GO2Q and other GPCRs (data not shown); format: biochemical
# Method: as §3
# [3] = biological target: T3, N-terminally V-tagged mouse GPR139 (Mus musculus, UniProt Q80UC8); experiment: GPR139 internalization in transiently transfected HEK-293 cells; format: cell-based; conditions: FIG. 4
# T3 construct: V tag (printed 'V-tagged' and 'VS-tagged'); expressed in transfected cells; host or cells: HEK-293 (transient)
# T3 sequence (Q80UC8 1-345): T1 sequence (Q80UC8 1-345)
# Source text: Many GPCRs are internalize by the cell when they are activated.
# GO2Q alone = experiment: GTPγS binding assay, control COS7 membranes expressing GO2Q alone (Ct-GO2Q); format: biochemical; conditions: for Activation levels (GTPγS binding), Ct-GO2Q: 1 mM final concentration, COS7 membranes expressing GO2Q alone, single wells of triplicate; for Activation of membranes from cells expressing GO2Q alone: same assay, 1 mM
# Method: as §2, §3
# GPR139 [4] = biological target: T2, GPR139; experiment: Calcium mobilization assay (FLIPR), GPR139 expressed in HEK293 cells; format: cell-based; design: expressed in transfected cells; host or cells: HEK293 (transient); conditions: for EC50: GPR139 expressing HEK293 cells, read-out: EC50 (half maximal effective concentration), calcium mobilization; for Stimulation of calcium mobilization: human GPR139 transiently expressed in HEK293 cells, FIG. 3
# Method: FIG. 3A and FIG. 3B: Provides the results of experiments conducted to determine whether Trp and its derivatives (FIG. 3A) and Phe and its derivatives (FIG. 3B) stimulate Ca^2+ mobilization in HEK293 cells expressing GPR139.
# The active compounds were also tested in a calcium mobilization assay (FLIPR® assay). For these experiments human GPR139 was transiently expressed in HEK293 cells and calcium mobilization was stimulated using L-Trp, L-Phe or their derivatives. […] The concentrations of L-Trp and L-Phe in many cell culture media (for instance DMEM is about 80 μM and 750 μM respectively) are close to the EC50 values of L-Trp and L-Phe for GPR139. […] This may explain why GPR139 appeared constitutively active when recombinantly expressed in mammalian cells.
# About 300 additional phenylalanine analogues have been tested for GPR139 activation using a calcium mobilization (FLIPR®) assay. The results of these experiments indicate that many of these analogues can also activate GPR139. Table 4 lists certain phenylalanine analogues that have been determined to activate GPR139 by calcium mobilization at a concentration of 300 μM (calcium mobilization is expressed as percentage of that observed for L-phenylalanine).
# GPR139 [5] = biological target: T2, GPR139; experiment: GTPγS binding dose response study, human GPR139 co-transfected with GO2Q into COS7 cells; format: biochemical; design: expressed in transfected cells; host or cells: COS7 (membranes); conditions: human GPR139, FIG. 2A and 2B
# Source text: as §1
SMILES,Dose-responsive activation of GPR139 (GTPγS binding) (mouse GPR139),Activation of GPR139 in the GTPγS binding assay (GPR139 [1]),"Activation levels of GPR139 (GTPγS binding), GPR139-GO2Q (GPR139 [1])",Activation of membranes from cells co-expressing GO2Q and other GPCRs [2],Internalization of tagged GPR139 upon stimulation [3],"Activation levels (GTPγS binding), Ct-GO2Q (GO2Q alone)",Activation of membranes from cells expressing GO2Q alone (GO2Q alone),EC50 (GPR139 [4]) [µM],Stimulation of calcium mobilization (GPR139 [4]),Dose-responsive activation of GPR139 (GTPγS binding) (GPR139 [5])
"N[C@@H](Cc1c[nH]c2ccccc12)C(=O)O [Trp, L-tryptophan]",specifically activate GPR139 in a dose-responsive manner,able to activate GPR139,8141 and 9121 and 9149,did not activate,internalized,2172 and 2234 and 2272,did not activate,100 to 200,specifically stimulate calcium mobilization,specifically activate GPR139 in a dose-responsive manner
"NCCc1ccccc1 [b-phenylethylamine, β-phenylethylamine]",specifically activate GPR139 in a dose-responsive manner,activated GPR139,6705 and 7099 and 6634,,,2334 and 2065 and 2024,,,,specifically activate GPR139 in a dose-responsive manner
"N[C@@H](Cc1ccccc1)C(=O)O [Phe, L-phenylalanine]",specifically activate GPR139 in a dose-responsive manner,able to activate GPR139,8697 and 6925 and 8417,did not activate,internalized,2190 and 2215 and 2345,did not activate,100 to 200,specifically stimulate calcium mobilization,specifically activate GPR139 in a dose-responsive manner
CC(N)Cc1ccccc1 (stereo not drawn) [Amphetamine],specifically activate GPR139 in a dose-responsive manner,activated GPR139,7242 and 6744 and 7263,,,2331 and 2132 and 2001,,,,specifically activate GPR139 in a dose-responsive manner
